Reference: paper PMC3320615, “β-Microseminoprotein Endows Post Coital Seminal Plasma with Potent Candidacidal Activity by a Calcium- and pH-Dependent Mechanism” (PLoS Pathogens, 2012)

Experiments:
[1] = system: Candida albicans ATCC 90028; assay: CFU assay with C. albicans; type: cell-based; details: for Estimate (difference between means of log values): control - treatment
Excerpt: Candida albicans strains: ATCC 90028, CAF-1-2, SC5814, BM4f35II68, vaginal clinical isolates from Dept. of Clincal Microbiology, Skåne University Hospital, SO_303369 and SO_503471. Candida parapsilosis strains: ATCC 90018, BD1800, BD17837, and BM24/68/09. Candida glabrata strains: ATCC 90030, clinical isolates from Dept. of Clincal Microbiology, Skåne University Hospital, SO_3336, SO_3400 and SO_503413. All strains were inoculated from frozen culture and grown in Yeast extract-Peptone-Dextrose (YPD) (Sigma) and on Sabourand Dextrose Broth (SAB) (Difco) plates at 30°C with 5% (v/v) CO2. If not otherwise stated, ATCC 90028 was used for candidacidal experiments.
Candida albicans was grown over night, washed, and resuspended in 10 mM Tris, 5 mM glucose, pH 7.4 or pH 4. Approximately 4×10^3 to 10^4 CFU of C. albicans were incubated with the test substance in low or neutral pH buffer for 4 h at 37°C. After incubation, the suspension was diluted and plated. Colonies were counted after two days incubation of the plates at 30°C. Bacteria from overnight cultures were inoculated in fresh medium and grown for 3 h, washed in 10 mM Tris, 5 mM glucose pH 7.4. Approximately 8×10^4 CFU were incubated with sample in 10 mM Tris, 5 mM glucose pH 7.4 or pH 4 for 1 h at 37°C, diluted, plated and incubated over night at 37°C and the colonies counted.
Statistical analysis was performed using SAS 9.2 software (SAS Institute, Cary, NC). Colony counts were log transformed. In order to choose the statistical method, interactions between the Treatment and Experiment were investigated. Treatments were screened by doing pair wise comparisons of each treatment to a control. Statistical tests used for the comparisons included MIXED procedure and LSMEANS statement. All tests where P-value<.05 were considered to indicate statistical significance. P-values were not adjusted for the multiple comparisons.
“Estimate” is the estimate of the difference between means of log values of treatment 1 and treatment 2

[2] = Liposome leakage (carboxyfluorescein release); type: biochemical; details: control experiments with EDTA alone
Method: Subsequently, buffer (10 mM Tris, pH 7.4) was added together with 0.1 M carboxyfluorescein (CF) (Sigma, St Louis, MO). After hydration, the lipid mixture was subjected to eight freeze-thaw cycles consisting of freezing in liquid nitrogen and heating to 60°C. Unilamellar liposomes of about Ø140 nm were generated by multiple extrusions through polycarbonate filters (pore size 100 nm) mounted in a […] (Avestin, Ottawa, Canada) at 22°C. Untrapped CF was then removed by two gel filtrations (Sephadex G-50) at 22°C, with Tris buffer as eluent. CF release was determined by monitoring the emitted fluorescence at 520 nm from liposome dispersions (10 mM lipid in 10 mM Tris). An absolute leakage scale was obtained by disrupting the liposomes at the end of the experiment through addition of 0.8 mM Triton X100 (Sigma, St Louis, MO), causing 100% release and dequenching of CF. Although calcein is frequently used for pH-dependent leakage studies, the high charge of this dye has been noted to influence its leakage behavior in the presence of highly cationic peptides. Instead, therefore, CF was used as a leakage marker at both pH 6.0 and 7.4, avoiding pH-dependent fluorescence effects through neutralization prior to probing the limiting leakage in case of pH 6.0 leakage. Throughout, a SPEX-fluorolog 1650 0.22-m double spectrometer (SPEX Industries, Edison, NJ) was used for the liposome leakage assay. Measurements were performed in at least triplicate at 37°C.

C. albicans = assay: Antifungal gel overlay assay (AU-PAGE); type: cell-based, Candida albicans
Method: Gel overlay assay was performed essentially as described. Briefly, duplicate samples were run on native Acid Urea (AU-PAGE) gels in 5% (v/v) acetic acid at 100 V for 1 h 20 min. Candida albicans was grown over night, washed and resuspended in 10 mM NaPO4 pH 7.4 and approximately 1×10^5 CFU were added to 12 ml melted underlay agarose (10 mM NaPO4, pH 7.4, 0.03% SAB, 1% agarose type 1 (Sigma, St. Louis, MO)) and poured into a square Petri dish. One AU-gel was stained with Coomassie brilliant blue and one AU gel was washed 3×4 min in 10 mM NaPO4, pH 7.4 and then placed on top of the agarose and incubated for 4 h at 37°C. The AU gel was then removed and an overlay agarose (6% SAB, 1% agarosetype 1 (Sigma)) was poured on top of the underlay and incubated over night at 30°C. To make the clearing zones more visible, the agarose was stained with Coomassie brilliant blue followed by destaining.

[3] = 5 µM, pH 4, with EDTA, experiment 1
[4] = 5 µM, pH 4, with EDTA, experiment 2
[5] = 5 µM, pH 4, with EDTA, experiment 3
[6] = 5 µM, pH 4, without EDTA, experiment 1
[7] = 5 µM, pH 4, without EDTA, experiment 2
[8] = 5 µM, pH 4, without EDTA, experiment 3

Molecule: EWQTDNCETCTCYETEISCC [MSP3, synthetic MSP-derived peptide]
- Estimate (difference between means of log values) [1, 3]: 0.09392
- Estimate (difference between means of log values) [1, 4]: 0.05166
- Estimate (difference between means of log values) [1, 5]: -0.02824
- Estimate (difference between means of log values) [1, 6]: -0.2487
- Estimate (difference between means of log values) [1, 7]: -0.7316
- Estimate (difference between means of log values) [1, 8]: -0.09956

Molecule: TNKCQKILNKKTCTYTVVEK [PMSP, peptide from porcine MSP corresponding to human MSP61–80]
- Effect of calcium and magnesium on antifungal activity ([1]; data not shown): inhibited by calcium but not magnesium
- Fungicidal activity compared with human MSP61–80 ([1]; pH 4, with and without EDTA, Figure S4): even higher fungicidal activity than its human counterpart
- Difference of mean colony counts between control and treatment ([1]; pH 4, with and without EDTA, three independent experiments): Significant difference (reduction)

Molecule: O=C(O)CN(CCN(CC(=O)O)CC(=O)O)CC(=O)O [EDTA, reference compound]
- Estimate (difference between means of log values) ([1]; 25 µM, pH 4, experiment 1): 0.3309
- Estimate (difference between means of log values) ([1]; 25 µM, pH 4, experiment 2): -0.2077
- Estimate (difference between means of log values) ([1]; 25 µM, pH 4, experiment 3): -0.01878
- Liposome rupture [2]: no liposome rupture

Molecule: SCYFIPNEGVPGDSTRKCMD [MSP1, synthetic MSP-derived peptide]
- Estimate (difference between means of log values) [1, 3]: -0.3564
- Estimate (difference between means of log values) [1, 4]: -0.5558
- Estimate (difference between means of log values) [1, 5]: -0.1369
- Estimate (difference between means of log values) [1, 6]: -0.6949
- Estimate (difference between means of log values) [1, 7]: -0.6938
- Estimate (difference between means of log values) [1, 8]: -0.2057

Molecule: KDNCQRIFKKEDCKYIVVEK [MSP5, synthetic MSP-derived peptide encompassing residues 61–80]
- Fungicidal activity in CFU assay (rank among overlapping peptides) ([1]; 5 µM, pH 4): highest fungicidal activity of the tested peptides
- Estimate (difference between means of log values) [1, 3]: 2.0492
- Estimate (difference between means of log values) [1, 4]: 4.5365
- Estimate (difference between means of log values) [1, 5]: 3.0952
- Estimate (difference between means of log values) [1, 6]: 0.5704
- Estimate (difference between means of log values) [1, 7]: 0.3334
- Estimate (difference between means of log values) [1, 8]: 0.6913

Molecule: prostate specific antigen: major protein from the prostate [reference compound]
- Clearing zone in antifungal gel overlay assay (C. albicans): did not give rise to clearing zones

Molecule: RKCMDLKGNKHPINSEWQTD [MSP2, synthetic MSP-derived peptide]
- Estimate (difference between means of log values) [1, 3]: 0.5727
- Estimate (difference between means of log values) [1, 4]: 0.2951
- Estimate (difference between means of log values) [1, 5]: 0.5877
- Estimate (difference between means of log values) [1, 6]: -0.4638
- Estimate (difference between means of log values) [1, 7]: -0.7678
- Estimate (difference between means of log values) [1, 8]: 0.2466

Molecule: LL-37 [reference compound]
- Estimate (difference between means of log values) ([1]; 50 µM LL-37, pH 4, + 50 µM calcium, experiment 1): 1.6956
- Estimate (difference between means of log values) ([1]; 50 µM LL-37, pH 4, + 50 µM calcium, experiment 2): 1.8880
- Estimate (difference between means of log values) ([1]; 50 µM LL-37, pH 4, + 75 µM calcium, experiment 1): 1.5909
- Estimate (difference between means of log values) ([1]; 50 µM LL-37, pH 4, + 75 µM calcium, experiment 2): 1.5305
- Estimate (difference between means of log values) ([1]; 50 µM LL-37, pH 4, + 100 µM calcium, experiment 1): 1.3942
- Estimate (difference between means of log values) ([1]; 50 µM LL-37, pH 4, + 100 µM calcium, experiment 2): 1.4384
- Estimate (difference between means of log values) ([1]; 50 µM LL-37, pH 4, + 200 µM calcium, experiment 1): 1.3064
- Estimate (difference between means of log values) ([1]; 50 µM LL-37, pH 4, + 200 µM calcium, experiment 2): 1.4253
- Estimate (difference between means of log values) ([1]; 50 µM LL-37, pH 4, no calcium, experiment 1): 1.6339
- Estimate (difference between means of log values) ([1]; 50 µM LL-37, pH 4, no calcium, experiment 2): 2.4025
- Estimate (difference between means of log values) ([1]; 50 µM LL-37, pH 7.4, + 50 µM calcium, experiment 1): 2.0757
- Estimate (difference between means of log values) ([1]; 50 µM LL-37, pH 7.4, + 50 µM calcium, experiment 2): 2.0565
- Estimate (difference between means of log values) ([1]; 50 µM LL-37, pH 7.4, + 50 µM calcium, experiment 3): 2.6878
- Estimate (difference between means of log values) ([1]; 50 µM LL-37, pH 7.4, + 75 µM calcium, experiment 1): 1.1627
- Estimate (difference between means of log values) ([1]; 50 µM LL-37, pH 7.4, + 75 µM calcium, experiment 2): 2.6753
- Estimate (difference between means of log values) ([1]; 50 µM LL-37, pH 7.4, + 75 µM calcium, experiment 3): 2.9703
- Estimate (difference between means of log values) ([1]; 50 µM LL-37, pH 7.4, + 100 µM calcium, experiment 1): 1.6404
- Estimate (difference between means of log values) ([1]; 50 µM LL-37, pH 7.4, + 100 µM calcium, experiment 2): 2.5186
- Estimate (difference between means of log values) ([1]; 50 µM LL-37, pH 7.4, + 100 µM calcium, experiment 3): 2.6194
- Estimate (difference between means of log values) ([1]; 50 µM LL-37, pH 7.4, + 200 µM calcium, experiment 1): 1.4145
- Estimate (difference between means of log values) ([1]; 50 µM LL-37, pH 7.4, + 200 µM calcium, experiment 2): 2.7659
- Estimate (difference between means of log values) ([1]; 50 µM LL-37, pH 7.4, + 200 µM calcium, experiment 3): 3.5282
- Estimate (difference between means of log values) ([1]; 50 µM LL-37, pH 7.4, no calcium, experiment 1): 3.2986
- Estimate (difference between means of log values) ([1]; 50 µM LL-37, pH 7.4, no calcium, experiment 2): 3.2280
- Estimate (difference between means of log values) ([1]; 50 µM LL-37, pH 7.4, no calcium, experiment 3): 4.0296

Molecule: IVVEKKDPKKTCSVSEWII [MSP6, synthetic MSP-derived peptide]
- Estimate (difference between means of log values) [1, 3]: 1.6087
- Estimate (difference between means of log values) [1, 4]: 3.2325
- Estimate (difference between means of log values) [1, 5]: 0.6931
- Estimate (difference between means of log values) [1, 6]: -0.00322
- Estimate (difference between means of log values) [1, 7]: 0.07848
- Estimate (difference between means of log values) [1, 8]: 0.9139

Molecule: EISCCTLVSTPVGYDKDNCQ [MSP4, synthetic MSP-derived peptide]
- Estimate (difference between means of log values) [1, 3]: -0.3731
- Estimate (difference between means of log values) [1, 4]: -0.4012
- Estimate (difference between means of log values) [1, 5]: -0.1411
- Estimate (difference between means of log values) [1, 6]: -0.5304
- Estimate (difference between means of log values) [1, 7]: -0.8100
- Estimate (difference between means of log values) [1, 8]: -0.2155
